Reference: publication PMC7898037, “Improving mitochondria and ER stability helps eliminate upper motor neuron degeneration that occurs due to mSOD1 toxicity and TDP‐43 pathology” (Clinical and Translational Medicine, 2021)

How the values were obtained:
Assay type in all cases: in vivo
[1] = tested on: prpTDP‐43^A315T‐UeGFP mice; assay: Rotarod test, prpTDP‐43^A315T‐UeGFP mice; details: for Rotarod, Predicted (LS) mean: prpTDP-43A315T-UeGFP (NU-9 100 mg/kg/day); for Rotarod, Average: prpTDP-43A315T-UeGFP, NU-9 100 mg/kg/day po
Protocol: (§1) hSOD1^G93A‐UeGFP, prpTDP‐43^A315T‐UeGFP and WT‐UeGFP mice were weighed and the required NU‐9 dose per weight was calculated (20 or 100 mg/kg), which was administered once daily by oral gavage, starting at postnatal day (P)60 and continuing until P120. Animals from the untreated group received the vehicle (NMP and olive oil) only. For oral administration purposes, 20 ga × 38 mm plastic feeding tubes were used (Instech Laboratories, Inc). The gavage tip was inserted into the mouth directly over the tongue and into the pharynx. While observing the swallowing reflex, the tip was safely and smoothly slid into the esophagus. Once the administration was completed, the gavage tip was pulled straight out.
Behavior data were collected from hSOD1^G93A‐UeGFP and WT‐UeGFP mice (starting at P60 and every 7 days until P116) and from prpTDP‐43^A315T‐UeGFP mice (at P60, P90, and P120) with the following number of mice for each group: WT‐UeGFP vehicle (n = 10), hSOD1^G93A‐UeGFP vehicle (n = 6), WT‐UeGFP 20 mg/kg/day NU‐9 (n = 5), hSOD1^G93A‐UeGFP 20 mg/kg/day NU‐9 (n = 7), WT‐UeGFP 100 mg/kg/day NU‐9 (n = 11), hSOD1^G93A‐UeGFP 100 mg/kg/day NU‐9 (n = 9), prpTDP‐43^A315T‐UeGFP untreated (n ≥ 3), and prpTDP‐43^A315T‐UeGFP 100 mg/kg/day NU‐9 (n = 4) (Table S3).
Mice were placed on a rotating rod that accelerates linearly from 4 to 40 rpm (Rotarod, Ugo Basile), and the average time spent on the rotating rod for three consecutive trials was calculated for each mouse. Mice were allowed to run for a maximum of 5 min with a 5 min rest period between each run, and the latency to fall was recorded for three consecutive trials. The average of the three trials was taken as the data point for each mouse at the age tested, and the performance of different groups are reported as the mean ± SEM.

[2] = tested on: UMNs of hSOD1^G93A‐UeGFP mice; assay: EM quantification of mitochondria and ER in UMNs, hSOD1^G93A‐UeGFP mice
Protocol: as §1
Mice were perfused with EM grade 4% PFA. One hemisphere of the brain was sectioned at 50 µm thickness coronally on a vibratome (Leica VT1000S, Leica Inc., Nussloch, Germany). The sections were postfixed in 2% PFA and 0.5% glutaraldehyde for 1 h, they were cryoprotected with glycerol–dimethylsulfoxide (DMSO) mixture followed by freeze–thaw at least four times, and treated with 1% sodium borohydride. They were then treated with 0.3% H2O2–10% methanol in TBS (100 mM Tris–HCl and 150 mM NaCl, pH 7.6) and 5% normal goat serum–1% bovine serum albumin in TBS to block nonspecific binding of primary antibody. This mixture was incubated overnight with rat anti‐Ctip2 antibody (1:500, Thermo Fisher Scientific, Rockford, IL, USA). Biotinylated goat anti‐rat IgG (1:500, Vector Laboratories, Burlingame, CA, USA) was used as the secondary antibody, and diaminobenzidine (DAB) was applied as the chromogen (ABC Elite kit, Vector Laboratories, Burlingame, CA, USA). Sections were then postfixed in buffered 2% osmium tetroxide (OsO4) (Electron Microscopy Sciences, Hatfield, PA, USA), rinsed with distilled water, and stained in 1% uranyl acetate (Electron Microscopy Sciences, Hatfield, PA, USA), again rinsed with distilled water, dehydrated in ascending grades of ethanol with transition fluid propylene oxide (Electron Microscopy Sciences, Hatfield, PA, USA), embedded in the resin mixture with Embed 812 (Electron Microscopy Sciences, Hatfield, PA, USA), and cured in a 60°C oven for 3 days. The sections in which primary motor cortex was present and visible under bright‐field illumination on a dissecting scope were selected. Approximately, 5‐mm‐wide × 7‐mm‐long pieces of the motor cortex from these sections were dissected under the microscope mounted on a resin block and were sectioned on a Leica Ultracut UC6 ultramicrotome (Leica Inc., Nussloch, Germany). The motor cortex was further trimmed, and only layer 5 was kept intact for preparing ultrathin sections. UMNs were identified based on the presence of Ctip2 immunohistochemistry (DAB) in their nuclei (Figure S1). Seventy‐nanometer‐thin sections were collected on 200‐mesh copper–palladium grids. Grids were counterstained with 8% radioactive depleted uranyl acetate and 0.2% lead citrate. Grids were examined on FEI Tecnai Spirit G2 TEM (FEI company, Hillsboro, OR, USA), and digital images were captured on a FEI Eagle camera.
EM images of Betz cells of normal control and patients, Ctip2‐positive (Ctip2^+) UMN of WT, and hSOD1^G93A‐UeGFP and prpTDP‐43^A315T‐UeGFP mice (Figure S1) were acquired from 70‐nm ultrathin sections of the motor cortex, and EM images were taken on FEI Tecnai Spirit G2 TEM using FEI Eagle camera. Mitochondria were quantified, as described previously. ^34 Mitochondria with intact outer and inner membrane and with intact cristae were considered healthy. Mitochondria with morphological defects, such as broken outer and/or inner membrane and cristae, were counted individually and were reported as percentage of defective mitochondria. ER that are disintegrated and that display profound expansion were considered unhealthy. Length of ER cisternae was measured using line tool of ImageJ software (NIH) upon calibration for pixels/micrometer using set scale function. […]

[3] = tested on: UMNs in the motor cortex of hSOD1^G93A‐UeGFP mice; assay: UMN quantification in motor cortex, hSOD1^G93A‐UeGFP mice; details: for Mean, Fig. 5E (UMN quantification in motor cortex): hSOD1G93A-UeGFP mice; for average number of UMNs per section in the motor cortex: hSOD1^G93A‐UeGFP mice
Protocol: as §1
Since UMNs are genetically labeled with eGFP expression in the motor cortex of WT‐UeGFP, hSOD1^G93A‐UeGFP, and prpTDP‐43^A315T‐UeGFP mice, UMNs were identified based on the GFP expression. Quantitative analyses were performed on three matched rostrocaudal sections spanning the motor cortex. Three images per subject were taken to capture a 4× objective filed that encompass layer 5 of the motor cortex. An inverted epifluorescent Eclipse TE2000‐E microscope (Nikon) with the same exposure time and intensity was used. UMNs were counted only if their soma and apical dendrite were both visualized in the same 50‐µm thick section. Images were analyzed in ImageJ (NIH) using the Find maxima processing command to determine the local maxima within a predetermined region of interest that circumscribes the layer 5 of the motor cortex. A universal noise tolerance, which ignores the local maxima corresponding to background and autofluorescence, was applied to all images.

[4] = hSOD1G93A-UeGFP (NU-9 100 mg/kg/day)
[5] = hSOD1^G93A‐UeGFP mice, 100 mg/kg/day oral gavage P60–P120, at P120

## C[C@H](Oc1cc(C(F)(F)F)cc(C(F)(F)F)c1)C1CC(=O)CC(=O)C1 [NU‐9]
[1]; P60, mixed-effects analysis
  Rotarod, Predicted (LS) mean: 260
[1]; P90, mixed-effects analysis
  Rotarod, Predicted (LS) mean: 216
[1]; P120, mixed-effects analysis
  Rotarod, Predicted (LS) mean: 165.8
[1]; P60
  Rotarod, Average: 267.889
[1]; P90
  Rotarod, Average: 232.556
[1]; P120
  Rotarod, Average: 178.444
[1]; prpTDP‐43^A315T‐UeGFP mice, 100 mg/kg/day, after 30 days of treatment
  rotarod test, latency to fall: 232.6 ± 18.1 s
[2]; [4]
  Fig. 2O group mean (total number of mitochondria/UMN): 21.13
  Fig. 2P group mean (percentage of healthy mitochondria/UMN): 86.3
  Fig. 2R group mean (average length of ER cisternae/UMN): 1.136
[2]; [5]
  average length of ER cisternae: 1.13 ± 0.1 µm
  number of healthy ER cisternae: 14 ± 2 ER cisternae/UMN/section
  percentage of healthy mitochondria in UMNs: 86% ± 3%
  total number of mitochondria in UMNs: 21 ± 2 mitochondria/UMN/section
[3]; NU-9 20 mg/kg/day
  Mean, Fig. 5E (UMN quantification in motor cortex): 21.06
[3]; NU-9 100 mg/kg/day
  Mean, Fig. 5E (UMN quantification in motor cortex): 46.43
[3]; hSOD1G93A-UeGFP vehicle minus NU-9 20 mg/kg/day, Tukey's multiple comparisons test
  Mean Diff., Fig. 5E, GS Vehicle vs. GS NU-9 (20): -16.12
[3]; hSOD1G93A-UeGFP vehicle minus NU-9 100 mg/kg/day, Tukey's multiple comparisons test
  Mean Diff., Fig. 5E, GS Vehicle vs. GS NU-9 (100): -41.49
[3]; 20 mg/kg/day oral gavage P60–P120
  average number of UMNs per section in the motor cortex: 21 ± 5 UMN
[3]; 100 mg/kg/day oral gavage P60–P120
  average number of UMNs per section in the motor cortex: 46 ± 3 UMN
